For assay [1], the system named is HaCaT cells. As to the kind of experiment: Production of reactive oxygen species in HaCat cells incubated with oil then preservative (POE or MIT). In kind it is cell-based. As for the experimental part:
Preservatives, used as an additive in pharmaceutical compositions, were evaluated. The preservatives evaluated are phenoxyethanol (POE) and methylisothiazolinone (MIT).
For this test, the HaCat cells are incubated with the oils A or B (for example for 15 minutes for the test with POE) then with the preservative POE or MIT (for example for 30 minutes with a solution of phenoxyethanol at 250 μg/mL).

In assay [2] the test system is HaCaT cells. As to the kind of experiment: Condensation of the chromatin, HOECHST 33342 test, HaCat cells with or without benzalkonium chloride. To be noted: one hour with oil or CM, then 20 minutes benzalkonium chloride (BAC) 8 ppm by weight. Format: cell-based. As for the experimental part:
The following standards and methods were used to measure the properties hereinabove: • flash point: EN ISO 2719 • density at 15° C.: EN ISO 1185 • viscosity at 40° C.: EN ISO 3104 • aniline point: EN ISO 2977 • boiling point: ASTM D86 • biodegradability: OECD method 306 • refractive index at 20° C.: ASTM D 1218 • vapour pressure: calculated according to methods well known to those skilled in the art Tests on the Cellular Effects Preparation of the Tests: • Preparation of the microplates: 24 hours before the incubation with the oils A and B, the HaCaT cells are inoculated with a cell density of 100,000 cells/ml in 96-well microplates (Corning). The microplates are then placed in the incubator at 37° C. In a microplate, each condition was tested at least three times. Each experiment was carried out at least three times independently in order to validate the reproducibility of the results and to carry out statistical analyses. • Incubation of cells with the oils A or B: two durations of incubation were selected for the products to be tested pure: an incubation for fifteen minutes and an incubation for one hour. […]
The measurement of the condensation of the chromatin expressed as a percentage relative to the culture medium (CM) is indicated in table 3 hereinbelow.

Marks after values point to notes of the source that are not given here.

In the case of `Cn1sccc1=O` [MIT, methylisothiazolinone], in the assay on HaCaT cells [1] (with preservative methylisothiazolinone (MIT), after incubation with oil or CM), the “Production of reactive oxygen species (% relative to the CM)” value is on record as 135 % relative to the CM.

Turning to benzalkonium chloride [CM + BAC], the “Measurement of the condensation of the chromatin (% relative to the CM)” value in the assay on HaCaT cells [2] is given as 138*** % relative to the CM.

Take phenoxyethanol [CM + POE]: the “Production of reactive oxygen species (% relative to the CM)” value with HaCaT cells [1] (with preservative phenoxyethanol (POE) 250 μg/mL 30 minutes, after 15 minutes with oil or CM) is listed as 132 % relative to the CM.

(Values after patent US11179347B2, “Hydrocarbon oil for a therapeutic use” (TOTAL MARKETING SERVICES, priority 2017, dated 2021).)
